Laboratory results as given in US20100298141A1, “SUBSTITUTED PYRIDINE N-OXIDE HERBICIDES” (E. I. DU PONT DE NEMOURS AND COMPANY, priority 2007, published 2010).

Tests used:
[1] = test system: common (oilseed) sunflower; experiment: Test C pre-/postemergence test; format: in vivo, Helianthus annuus
Procedure, shortened: (§1)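 Seeds were planted and treated preemergence with test chemical in a non-phytotoxic solvent mixture containing surfactant. Postemergence applications of the same formulation went onto plants 2 to 18 cm tall (1- to 4-leaf stage). A dash marks no test result.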

crabgrass = experiment: Test A pre-/postemergence greenhouse test; format: in vivo, Digitaria sanguinalis; details: for Crabgrass, Large plant response rating: 0 to 100 scale
Procedure, shortened: (§2)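 Pre: directed soil spray on seeded loam/sand. Post: foliar spray, plants 2–10 cm, 1–2 leaf stage, applied concurrently. Vehicle: non-phytotoxic solvent + surfactant. Greenhouse ~10 d; visual injury rating vs untreated controls.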

umbrella sedge = experiment: Test C flooded paddy test; format: in vivo, Cyperus difformis; details: Flood
Procedure, shortened: (§3)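 Visual injury ratings against untreated controls, taken 13 to 15 days after compound was added to paddy water standing 3 cm above the soil.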

woolly cupgrass = experiment: Test C pre-/postemergence test; format: in vivo, Eriochloa villosa
Procedure, shortened: as §1

redroot pigweed = experiment: Test A pre-/postemergence greenhouse test; format: in vivo, Amaranthus retroflexus; details: for Pigweed plant response rating: 0 to 100 scale
Procedure, shortened: as §2

Goosegrass = experiment: Test C pre-/postemergence test; format: in vivo, Eleusin indica
Procedure, shortened: as §1

common ragweed = experiment: Test C pre-/postemergence test; format: in vivo, Ambrosia elation
Procedure, shortened: as §1

corn = experiment: Test C pre-/postemergence test; format: in vivo, Zea mays
Procedure, shortened: as §1

eastern black nightshade = experiment: Test C pre-/postemergence test; format: in vivo, Solanum ptycanthum
Excerpt: Seeds of plant species selected from blackgrass (Alopecurus myosuroides), downy brome (Bromus tectorum), green foxtail (Setaria viridis), Italian ryegrass (Lolium multiflorum), wheat (Triticum aestivum), wild oat (Avena fatua), catchweed bedstraw (Galium aparine), Russian thistle (Salsola kali), […] (Cynodon dactylon), Surinam grass (Brachiaria decumbens), cocklebur (Xanthium strumarium), corn (Zea mays), crabgrass (Digitaria sanguinalis), woolly cupgrass (Eriochloa villosa), giant foxtail (Setaria faberii), Goosegrass (Eleusin indica), johnsongrass (Sorghum halepense), kochia (Kochia scoparia), lambsquarters (Chenopodium album), morningglory (Ipomoea coccinea), eastern black nightshade (Solanum ptycanthum), yellow nutsedge (Cyperus esculentus), pigweed (Amaranthus retroflexus), common ragweed (Ambrosia elation), soybean (Glycine max), common (oilseed) sunflower (Helianthus annuus), and velvetleaf (Abutilon theophrasti) were planted and treated preemergence with test chemicals formulated in a non-phytotoxic solvent mixture which included a surfactant. At the same time, plants selected from these crop and weed species and also winter barley (Hordeum vulgare), canarygrass (Phalaris minor), and chickweed (Stellaria media) were treated with postemergence applications of some of the test chemicals formulated in the same manner. Plants ranged in height from 2 to 18 cm (1- to 4-leaf stage) for postemergence treatments. […] At time of treatment, test pots were flooded to 3 cm above the soil surface, treated by application of test compounds directly to the paddy water, and then maintained at that water depth for the duration of the test. […] A dash (-) response means no test result.

morningglory = experiment: Test A pre-/postemergence greenhouse test; format: in vivo, Ipomoea spp.; details: for Morningglory plant response rating: 0 to 100 scale
Procedure, shortened: as §2

duck salad = experiment: Test C flooded paddy test; format: in vivo, Heteranthera limosa; details: Flood
Procedure, shortened: as §3

yellow nutsedge = experiment: Test C pre-/postemergence test; format: in vivo, Cyperus esculentus
Procedure, shortened: as §1

[2] = 62 g ai/ha, Preemergence, scale 0 to 100
[3] = 125 g ai/ha, preemergence, scale 0 (no effect) to 100 (complete control)
[4] = Preemergence, 31 g ai/ha, scale 0 to 100 (0 no effect, 100 complete control)
[5] = preemergence, 250 g ai/ha, scale 0 (no effect) to 100 (complete control)
[6] = Postemergence, 125 g ai/ha, 0 is no effect, 100 is complete control
[7] = Postemergence, 500 g ai/ha, 0 is no effect, 100 is complete control
[8] = Preemergence, 125 g ai/ha, 0 no effect, 100 complete control
[9] = Preemergence, 500 g ai/ha, 0 to 100 scale where 0 is no effect and 100 is complete control
[10] = 31 g ai/ha, scale 0 to 100 (0 no effect, 100 complete control)
[11] = 62 g ai/ha, scale 0 to 100, 0 no effect, 100 complete control, 13 to 15 days
[12] = 125 g ai/ha, scale 0 to 100, 0 no effect, 100 complete control, 13 to 15 days
[13] = 250 g ai/ha, scale 0 to 100, 0 no effect, 100 complete control, 13 to 15 days

In the case of `Cn1nc(C(F)(F)F)c(C[S+]([O-])c2cc(Cl)cc[n+]2[O-])c1Cl` (racemic) [Compound 39], the “Sunflower plant response rating” value [1, 2] is reported as 0, the “Sunflower plant response rating” value [1, 3] is reported as 0 and the “Plant response rating, Sunflower” value [1, 4] is reported as 0. The “Sunflower plant response rating” value [1, 5] was 75, the “Crabgrass, Large plant response rating” value (crabgrass; [6]) was 80 and the “Crabgrass, Large plant response rating” value (crabgrass; [7]) was 80. The “Crabgrass, Large plant response rating” value (crabgrass; [8]) was 90, the “Plant response rating, Crabgrass, Large” value (crabgrass; [9]) was 90 and the “Plant response rating, Sedge, Umbrella” value (umbrella sedge; [10]) was 70. The “Plant response rating, Sedge, Umbrella” value (umbrella sedge; [11]) was 85, the “Plant response rating, Sedge, Umbrella” value (umbrella sedge; [12]) was 95 and the “Plant response rating, Sedge, Umbrella” value (umbrella sedge; [13]) was 95. For the same compound, the “Cupgrass, Woolly plant response rating” value (woolly cupgrass; [2]) was 85, the “Cupgrass, Woolly plant response rating” value (woolly cupgrass; [3]) was 85 and the “Plant response rating, Cupgrass, Woolly” value (woolly cupgrass; [4]) was 40. The “Cupgrass, Woolly plant response rating” value (woolly cupgrass; [5]) was 85, the “Pigweed plant response rating” value (redroot pigweed; [6]) was 60 and the “Pigweed plant response rating” value (redroot pigweed; [7]) was 100. For the same compound, the “Pigweed plant response rating” value (redroot pigweed; [8]) was 100, the “Plant response rating, Pigweed” value (redroot pigweed; [9]) was 100 and the “Goosegrass plant response rating” value (Goosegrass; [2]) was 100. The “Goosegrass plant response rating” value (Goosegrass; [3]) was 100, the “Plant response rating, Goosegrass” value (Goosegrass; [4]) was 98 and the “Goosegrass plant response rating” value (Goosegrass; [5]) was 100. For the same compound, the “Ragweed plant response rating” value (common ragweed; [2]) was 0, the “Ragweed plant response rating” value (common ragweed; [3]) was 90 and the “Ragweed plant response rating” value (common ragweed; [5]) was 90. For the same compound, the “Corn plant response rating” value (corn; [2]) was 5, the “Corn plant response rating” value (corn; [3]) was 70 and the “Plant response rating, Corn” value (corn; [4]) was 0. For the same compound, the “Corn plant response rating” value (corn; [5]) was 80, the “Nightshade plant response rating” value (eastern black nightshade; [2]) was 90 and the “Nightshade plant response rating” value (eastern black nightshade; [3]) was 95. For the same compound, the “Plant response rating, Nightshade” value (eastern black nightshade; [4]) was 75, the “Nightshade plant response rating” value (eastern black nightshade; [5]) was 98 and the “Morningglory plant response rating” value (morningglory; [6]) was 60. The “Morningglory plant response rating” value (morningglory; [7]) was 100, the “Morningglory plant response rating” value (morningglory; [8]) was 80 and the “Plant response rating, Morningglory” value (morningglory; [9]) was 100. The “Plant response rating, Ducksalad” value (duck salad; [10]) was 70, the “Plant response rating, Ducksalad” value (duck salad; [11]) was 80 and the “Plant response rating, Ducksalad” value (duck salad; [12]) was 90. The “Plant response rating, Ducksalad” value (duck salad; [13]) was 95, the “Nutsedge, Yellow plant response rating” value (yellow nutsedge; [2]) was 50 and the “Nutsedge, Yellow plant response rating” value (yellow nutsedge; [3]) was 85. The “Plant response rating, Nutsedge, Yellow” value (yellow nutsedge; [4]) was 50 and the “Nutsedge, Yellow plant response rating” value (yellow nutsedge; [5]) was 85.
